Source: patent US8394787B2, “7-aza-spiro[3.5]nonane-7-carboxylate derivatives, preparation thereof and therapeutic use thereof” (Sanofi, priority 2009, dated 2013)
pIC50: −log10 of the molar value. Each block holds one compound with its values, some of them ahead of it.

How the values were obtained:
[1] = target: T1, enzyme FAAH (Fatty Acid Amide Hydrolase) (Mus musculus, UniProt O08914); assay: FAAH radio-enzymatic test, hydrolysis of [1-3H ethanolamine] anandamide (protocol 1); assay type: biochemical; settings: mouse brain membrane homogenate, anandamide 10 μM, 20 mins preincubation at 25° C., read-out: IC50 (concentration inhibiting 50% of the control enzymatic activity of FAAH)
T1 construct: The membrane homogenates are prepared extemporaneously by homogenizing the tissues; from tissue; host or cells: mouse brain (minus the cerebellum), homogenate
T1 sequence (O08914 1-579): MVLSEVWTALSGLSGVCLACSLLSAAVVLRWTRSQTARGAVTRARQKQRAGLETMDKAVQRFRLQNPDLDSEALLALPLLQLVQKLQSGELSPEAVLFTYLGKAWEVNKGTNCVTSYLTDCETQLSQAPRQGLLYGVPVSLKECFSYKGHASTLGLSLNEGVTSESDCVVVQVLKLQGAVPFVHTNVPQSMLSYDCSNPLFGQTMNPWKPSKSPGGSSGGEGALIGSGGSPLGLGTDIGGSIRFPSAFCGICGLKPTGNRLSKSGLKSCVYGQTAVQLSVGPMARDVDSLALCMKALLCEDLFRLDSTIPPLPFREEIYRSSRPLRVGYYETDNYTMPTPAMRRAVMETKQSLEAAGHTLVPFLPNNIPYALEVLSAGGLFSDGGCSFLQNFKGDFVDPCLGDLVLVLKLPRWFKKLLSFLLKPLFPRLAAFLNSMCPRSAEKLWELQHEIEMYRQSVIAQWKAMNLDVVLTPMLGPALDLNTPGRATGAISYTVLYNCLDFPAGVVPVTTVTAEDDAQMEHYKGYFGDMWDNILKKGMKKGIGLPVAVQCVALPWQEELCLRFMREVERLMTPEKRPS
Experimental: (§1) The compounds of the invention were subjected to pharmacological tests to determine their inhibitory effect on the enzyme FAAH (Fatty Acid Amide Hydrolase).
Thus, mouse brains (minus the cerebellum) are removed and stored at −80° C. The membrane homogenates are prepared extemporaneously by homogenizing the tissues using a Precellys® machine in the reaction buffer (10 mM Tris-HCl, pH=8, 150 mM NaCl and 1 mM ethylenediaminetetraacetic acid (EDTA)). The enzymatic reaction is performed in 96-well Multiscreen filtration plates in a final volume of 70 μl. Reaction buffer supplemented with fatty acid-free bovine serum albumin (BSA, 1 mg/ml) is used for the enzymatic reaction and the dilution of the compounds and the [1-^3H ethanol-amine] anandamide. The reaction buffer containing BSA (43 μl/well), the diluted test compounds at different concentrations (7 μl/well containing 1% DMSO) and the membrane preparation (10 μl/well, i.e. 200 μg of tissue per test) are successively added to the wells. After preincubation of the compounds with the enzyme at 25° C. for 20 mins, the reaction is started by adding [1-^3H ethanolamine] anandamide. (Specific activity 15-20 Ci/mmol) diluted with cold anandamide (10 μl/well, final concentration 10 μM, 0.01 μCi per test). After incubation for 20 mins at 25° C., the enzymatic reaction is stopped by addition of a […] solution of active charcoal prepared in 1.5M NaCl and 0.5M HCl buffer (50 μl/well). The mixture is stirred for 10 mins and the aqueous phase containing the [1-^3H]ethanolamine is then recovered by filtration under vacuum and counted by liquid scintillation.

[2] = target: T1, enzyme FAAH (Fatty Acid Amide Hydrolase); assay: FAAH fluorescence enzymatic test, hydrolysis of AAMC (protocol 2); assay type: biochemical; settings: mouse brain homogenate, AAMC 10 μM, 20 mins preincubation at 25° C., 40 mins at 37° C., read-out: IC50 (concentration inhibiting 50% of the control enzymatic activity of FAAH)
Experimental: as §1
Thus, mouse brains (minus the cerebellum) are removed and stored at −80° C. The brain homogenates are prepared extemporaneously by homogenizing the tissues using a Precellys® machine in the reaction buffer (10 mM Tris-HCl, pH=8, 150 mM NaCl and 1 mM ethylenediamine-tetraacetic acid (EDTA)). The enzymatic reaction is performed in black polystyrene 384-well plates in a final volume of 50 μl. Reaction buffer supplemented with fatty acid-free bovine serum albumin (BSA, 1 mg/ml) is used for the enzymatic reaction, dilution of the compounds and dilution of the AAMC. The reaction buffer containing BSA (25 μl/well), the diluted test compounds at different concentrations (5 μl/well containing 1% DMSO) and the membrane preparation (10 μl/well, i.e. 200 μg of tissue per test) are successively added to the wells. After preincubation of the compounds with the enzyme for 20 mins at 25° C., the reaction is started by addition of 10 μl of substrate per well (AAMC, final concentration 10 μM). After incubation for 40 mins at 37° C., the aminomethyl coumarin (AMC) produced is measured by fluorescent counting (Envision plate reader).

[3] = system: male OF1 mice; assay: test of analgesia: PBQ-induced abdominal stretching; assay type: in vivo, mouse; settings: 30 mg/kg p.o. at 120 mins before PBQ
Experimental: The in vivo activity of the compounds of the invention was evaluated in a test of analgesia.
Thus, the intraperitoneal (i.p.) administration of PBQ (phenylbenzoquinone, 2 mg/kg in 0.9% sodium chloride solution containing 5% ethanol) to male OF1 mice weighing 25 to 30 g causes abdominal stretching, on average 30 torsions or contractions during the period of 5 to 15 mins after injection. The test compounds are administered orally (p.o.) or intraperitoneally (i.p.) suspended in Tween 80 at 0.5%, 60 mins or 120 mins before the administration of PBQ. Under these conditions, the most powerful compounds reduce by 35% to 80% the number of stretches induced by the PBQ, in a dosage range lying between 1 and 30 mg/kg. For example, compound 25 of Table 1 reduces by 50% the number of stretches induced by the PBQ, at a dose of 30 mg/kg p.o. at 120 mins.

SMILES: CNC(=O)c1cc(COC(=O)N2CCC3(CC(Oc4ccc(-c5ccc(F)cc5)cc4)C3)C2)on1 (single isomer, unassigned) [Compound 29, 3-methylcarbamoyl-isoxazol-5-ylmethyl 2-(4′-fluorobiphenyl-4-yloxy)-6-aza-spiro[3.4]octane-6-carboxylate]
melting point: 135 to 137 °C
pIC50 [1]: 8.28

SMILES: CNC(=O)c1cc(COC(=O)N2CCC3(CC(Oc4ccc(-c5ccc(F)cc5)cc4)C3)C2)on1 (single isomer, unassigned) [Compound 32, 3-methylcarbamoyl-isoxazol-5-ylmethyl 2-(4′-fluorobiphenyl-4-yloxy)-6-aza-spiro[3.4]octane-6-carboxylate]
melting point: 149 to 151 °C
pIC50 [1]: 8.52

SMILES: CNC(=O)c1cc(COC(=O)N2CCC3(CC(Oc4ccc(-c5ccc(F)cc5)cc4)C3)C2)on1 (single isomer, unassigned) [Compound 33, 3-methylcarbamoyl-isoxazol-5-ylmethyl 2-(4′-fluorobiphenyl-4-yloxy)-6-aza-spiro[3.4]octane-6-carboxylate]
melting point: 150 to 152 °C
pIC50 [1]: 7.72

SMILES: CNC(=O)c1cc(COC(=O)N2CCC3(CC2)CC(Oc2cccc(-c4ccc(F)cc4)c2)C3)on1 [Compound 7, 3-methylcarbamoyl-isoxazol-5-ylmethyl 2-(4′-fluorobiphenyl-3-yloxy)-7-aza-spiro[3.5]nonane-7-carboxylate]
pIC50 [1]: 7.72

SMILES: CNC(=O)c1cc(COC(=O)N2CCC3(CC2)CC(Oc2ccc(-c4ccc(F)cc4)cc2)C3)on1 [Compound 19, 3-methylcarbamoyl-isoxazol-5-ylmethyl 2-(4′-fluorobiphenyl-4-yloxy)-7-aza-spiro[3.5]nonane-7-carboxylate]
pIC50 [2]: 8.77
melting point: 174 to 176 °C

pIC50 [2]: 9.34
melting point: 163 to 165 °C
SMILES: CNC(=O)c1cc(COC(=O)N2CC3(CC(Oc4ccc(-c5ccc(F)cc5)cc4)C3)C2)on1 [Compound 25, 3-methylcarbamoyl-isoxazol-5-ylmethyl 6-(4′-fluorobiphenyl-4-yloxy)-2-aza-spiro[3.3]heptane-2-carboxylate]
reduction of the number of stretches induced by the PBQ [3]: 50%
